Experimental data taken from US9687480B2, “Chiral 1-(4-methylphenylmethyl)-5-oxo-{N-[(3-t-butoxycarbonyl-aminomethyl)]-piperidin-1-yl)-pyrrolidine as inhibitors of collagen induced platelet activation and adhesion” (Council of Scientific & Industrial Research, priority 2011, dated 2017).

Assays:
hyperlipidemic hamsters [1] = assay: FeCl3 induced thrombosis in hyperlipidemic hamsters; assay type: in vivo; settings: HCHF fed hamsters
Experimental: (§1) HCHF treated hamsters were anesthetized by urethane (1.25 g/kg, i.p.). The carotid artery was carefully dissected and a pulsed Doppler Probe (DBF-120A-CPx, CBI-8000, Crystal Biotech. USA) was placed around it to record the blood flow velocity and potency of the blood vessels. The carotid artery thrombosis was induced by FeCl3 as follows: a square (1×1 mm) of Whatman Chromatography paper was immersed in 30% FeCl3 solution for 5 min and placed on the carotid artery as described earlier (Kurz K D, Main B W, Sandusky G E. Rat model of arterial thrombosis induced by ferric chloride. Thromb Res 1990; 60(4):269-80). Thrombosis was monitored as the reduction in carotid artery blood flow. The time at which the blood-flow velocity was decreased to zero was recorded as the total of occlusion of the vessel.

[2] = system: hamster whole blood (Collagen 2.5 μg/ml); assay: Whole blood aggregation in hyperlipidemic hamsters (ex vivo), collagen induced; settings: HCHF hamsters ex vivo, aspirin 100 μM/kg, clopidogrel 30 μM/kg
mice = assay: Tail bleeding time in mice; assay type: in vivo; settings: aspirin 170 μM/kg, clopidogrel 30 μM/kg
Experimental: Bleeding time in mice was evaluated by the method of Dejana et al, (Dejana E, Callioni A, Quintana A, Gaetano G. Bleeding time in laboratory animals. II—A comparison of different assay conditions in rats. […] The time elapsed from the tip incision to the stoppage of bleeding was determined as the bleeding time. The preferred compounds, aspirin (30 mg/kg) or vehicle was given orally 60 min prior to the tail incision in a group of 5 mice each.

[3] = system: hamster whole blood (Thrombin 1 U/ml); assay: Whole blood aggregation in hyperlipidemic hamsters (ex vivo), thrombin induced; settings: HCHF hamsters ex vivo; aspirin 100 μM/kg, clopidogrel 30 μM/kg
hamster platelets = assay: Platelet adhesion on collagen coated surface (hyperlipidemic hamster model, ex vivo); assay type: in vivo, hamsters; settings: hyperlipidemic hamsters, ex vivo
Experimental: Platelet adhesion to collagen was measured in polystyrene 96-well micro titer plates. Micro titer plates were coated with insoluble equine tendon native fibrillar type I collagen (Chrono-Log Corp. Havertown, USA), 2 μg/well in 5 mM acetic acid (Tandon N N, Ockenhouse C F, Greco […]. Adhesive functions of platelet lacking GPIV (CD36). Blood 1991; 78: 2809-13) overnight at 4° C. The unoccupied protein binding sites on the wells were blocked with 0.5% BSA in Tyrode's-HEPES buffer (136.7 mM NaCl, 13.8 mM NaHCO3. 0.36 mM NaH2PO4.H2O, 2.6 mM KCl, 1.0 mM MgCl2.6H2O, 5.5 mM glucose, pH 7.4) at room temperature for 1 hour, and then rinsed once with PBS. Washed platelets were suspended in the Tyrode's-HEPES buffer and added to the wells (2×10^7 cells/well) for 1 h at room temperature. After three washes with PBS, the number of adherent platelets was evaluated colorimetrically (Bellavite P., Andrioli G., Gizzo P., Arigliano P., Chirumbolo […] colorimetric method for the measurement of platelet adhesion in microtiter plates. Anal. Blochem. 1994; 216:444-450). Briefly, 150 μl of a 0.1 M citrate buffer (pH 5.4), containing 5 mM p-nitrophenyl phosphate and 0.1% TritonX-100 was added to the wells after washing. After incubation for 30 minutes at 25° C. in the absence of ambient light, colour was developed by the addition of 100 μl of 2N NaOH and the absorbance at 405 nm was read using a microplate reader (Powerware XS, Biotek, USA).

rats = assay: FeCl3 induced carotid artery thrombosis in rats; assay type: in vivo; settings: rats; compound 1 at the same dose as compound 6; aspirin at a very high dose
Experimental: as §1, with “Male SD rats” for “HCHF treated hamsters”, “Biotech,” for “Biotech.”, “patency” for “potency”, “20%” for “30%”, “occlusion (TTO)” for “occlusion”, “carotid artery. […] (Ferric Chloride induced thrombosis (FIG. 7))” for “vessel.”

mouse platelets = assay: Platelet adhesion over collagen matrix (mice, ex vivo); assay type: in vivo; settings: oral route, compound 6 10, 30, 100 μM/kg, aspirin 100 μM/kg
Description: FIG. 4b: Adhesion of mouse platelets on collagen matrix as observed under fluorescence microscope 40× (ex vivo method). Different pictures show the different treatment performed. Washed murine platelets (2×10^6/ml) were obtained from animals pretreated with the compound (compound 6) (different doses) and seeded on BSA or Collagen (fibrillar) coated cover slips (A, B). Platelets from untreated animals were allowed to adhere on uncoated and BSA coated cover slip respectively to delineate the possibility of non specific binding. C, D. control platelets were adhered on collagen coated cover slip (control). E. F&G. Platelets obtained from animals pre-treated with compound 6 (10 μM/kg, 30 μM/kg & 100 μM/kg) respectively were adhered on collagen coated cover slip. H, I. Platelets from Aspirin (100 μM/kg) & Clopidogrel treated (100 μM/kg) animals resp. (standard Drugs) and adhered on collagen coated cover slip (n=5, 5 animals/group/experiment).

[4] = system: hamster whole blood (ADP 10 μM); assay: Whole blood aggregation in hyperlipidemic hamsters (ex vivo), ADP induced; settings: HCHF hamsters ex vivo, aspirin 100 μM/kg, clopidogrel 30 μM/kg
hyperlipidemic hamsters [5] = assay: Arterio-venous shunt model in hyperlipidemic hamsters; assay type: in vivo; settings: hyperlipidemic hamsters; compound 6 at 10 μM/kg

| Structure (SMILES) | time to occlusion (TTO) (hyperlipidemic hamsters [1]) | collagen induced whole blood platelet aggregation [2] | collagen induced whole blood platelet aggregation ([2]; listed as Aspirin) | bleeding time, standard drugs (mice) | thrombin induced whole blood platelet aggregation [3] | platelet adhesion over collagen coated surface (hamster platelets) | time to occlude the carotid artery (TTO) (rats) | platelet adhesion (ex vivo) over collagen surface (mouse platelets) | ADP induced whole blood platelet aggregation [4] | thrombus weight (hyperlipidemic hamsters [5]) | ADP induced whole blood platelet aggregation ([4]; listed as Clopidogrel) |
| --- | --- | --- | --- | --- | --- | --- | --- | --- | --- | --- | --- |
| CC(=O)Oc1ccccc1C(=O)O [aspirin, reference compound] | significantly prolonged | but not collagen induced aggregation | reduced platelet aggregation in response to collagen | significantly prolonged | can only inhibit ADP and Thrombin | no alteration | remained ineffective | did not exhibit any inhibitory effect | can only inhibit ADP and Thrombin | significantly reduced |  |
| COC(=O)[C@H](c1ccccc1Cl)N1CCc2sccc2C1 [clopidogrel, reference compound] | significantly prolonged | inhibited ADP and collagen induced platelet aggregation |  |  |  | significant reduction |  |  | can only inhibit ADP induced aggregation | significantly reduced | inhibited ADP and collagen induced platelet aggregation |
